Test results taken from ChEMBL document CHEMBL5512696, “Discovery of a Novel ASM Direct Inhibitor with a 1,5-Diphenyl-pyrazole Scaffold and Its Antidepressant Mechanism of Action” (J Med Chem, 2024).

Molecular target: T1, Sphingomyelin phosphodiesterase (Homo sapiens, UniProt P17405)
T1 sequence (P17405 whole entry): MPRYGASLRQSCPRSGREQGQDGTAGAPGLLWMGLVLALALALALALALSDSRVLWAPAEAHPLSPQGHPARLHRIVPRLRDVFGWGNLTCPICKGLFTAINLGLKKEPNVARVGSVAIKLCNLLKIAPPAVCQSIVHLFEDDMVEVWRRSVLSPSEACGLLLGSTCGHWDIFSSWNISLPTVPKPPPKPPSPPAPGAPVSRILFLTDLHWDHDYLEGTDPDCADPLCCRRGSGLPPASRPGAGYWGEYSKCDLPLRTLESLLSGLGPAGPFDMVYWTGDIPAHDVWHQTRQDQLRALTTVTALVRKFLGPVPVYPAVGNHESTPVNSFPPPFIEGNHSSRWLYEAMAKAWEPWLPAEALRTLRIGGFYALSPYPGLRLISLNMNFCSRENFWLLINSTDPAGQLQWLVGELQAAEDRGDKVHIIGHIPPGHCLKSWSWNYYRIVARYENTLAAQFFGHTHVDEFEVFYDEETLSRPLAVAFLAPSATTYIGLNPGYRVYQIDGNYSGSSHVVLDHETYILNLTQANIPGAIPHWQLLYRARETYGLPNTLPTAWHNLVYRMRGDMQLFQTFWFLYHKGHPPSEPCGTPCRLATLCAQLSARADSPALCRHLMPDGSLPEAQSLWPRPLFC
Test: Inhibition of human recombinant ASM (His62 to Pro628 residues) using HMU-PC as substrate incubated for 2 hrs by fluorescence based analysis

## CCCCCCCCCCOc1cc(C(=O)NO)ccc1OC
  IC50: 1200 nM
